Results published in US20230002367A1, “BIFUNCTIONAL COMPOUNDS” (Hoffmann-La Roche Inc., priority 2019, published 2023).

Target: T1, SMARCA2 (Homo sapiens, UniProt P51531)
T1 construct: endogenous in cells
Test: SMARCA2 HiBiT degradation assay (cellular)
Format: cell-based
Details: for Emax: A549, Emax = amount of residual protein remaining in the cell following compound treatment; for DC50: SMARCA2 HiBiT cells, luminescence readout, 11-point titration from 10 μM, 6 hours or 16 hours, read-out: HiBit A549 SMARCA2 IP

T1 sequence (P51531 whole entry): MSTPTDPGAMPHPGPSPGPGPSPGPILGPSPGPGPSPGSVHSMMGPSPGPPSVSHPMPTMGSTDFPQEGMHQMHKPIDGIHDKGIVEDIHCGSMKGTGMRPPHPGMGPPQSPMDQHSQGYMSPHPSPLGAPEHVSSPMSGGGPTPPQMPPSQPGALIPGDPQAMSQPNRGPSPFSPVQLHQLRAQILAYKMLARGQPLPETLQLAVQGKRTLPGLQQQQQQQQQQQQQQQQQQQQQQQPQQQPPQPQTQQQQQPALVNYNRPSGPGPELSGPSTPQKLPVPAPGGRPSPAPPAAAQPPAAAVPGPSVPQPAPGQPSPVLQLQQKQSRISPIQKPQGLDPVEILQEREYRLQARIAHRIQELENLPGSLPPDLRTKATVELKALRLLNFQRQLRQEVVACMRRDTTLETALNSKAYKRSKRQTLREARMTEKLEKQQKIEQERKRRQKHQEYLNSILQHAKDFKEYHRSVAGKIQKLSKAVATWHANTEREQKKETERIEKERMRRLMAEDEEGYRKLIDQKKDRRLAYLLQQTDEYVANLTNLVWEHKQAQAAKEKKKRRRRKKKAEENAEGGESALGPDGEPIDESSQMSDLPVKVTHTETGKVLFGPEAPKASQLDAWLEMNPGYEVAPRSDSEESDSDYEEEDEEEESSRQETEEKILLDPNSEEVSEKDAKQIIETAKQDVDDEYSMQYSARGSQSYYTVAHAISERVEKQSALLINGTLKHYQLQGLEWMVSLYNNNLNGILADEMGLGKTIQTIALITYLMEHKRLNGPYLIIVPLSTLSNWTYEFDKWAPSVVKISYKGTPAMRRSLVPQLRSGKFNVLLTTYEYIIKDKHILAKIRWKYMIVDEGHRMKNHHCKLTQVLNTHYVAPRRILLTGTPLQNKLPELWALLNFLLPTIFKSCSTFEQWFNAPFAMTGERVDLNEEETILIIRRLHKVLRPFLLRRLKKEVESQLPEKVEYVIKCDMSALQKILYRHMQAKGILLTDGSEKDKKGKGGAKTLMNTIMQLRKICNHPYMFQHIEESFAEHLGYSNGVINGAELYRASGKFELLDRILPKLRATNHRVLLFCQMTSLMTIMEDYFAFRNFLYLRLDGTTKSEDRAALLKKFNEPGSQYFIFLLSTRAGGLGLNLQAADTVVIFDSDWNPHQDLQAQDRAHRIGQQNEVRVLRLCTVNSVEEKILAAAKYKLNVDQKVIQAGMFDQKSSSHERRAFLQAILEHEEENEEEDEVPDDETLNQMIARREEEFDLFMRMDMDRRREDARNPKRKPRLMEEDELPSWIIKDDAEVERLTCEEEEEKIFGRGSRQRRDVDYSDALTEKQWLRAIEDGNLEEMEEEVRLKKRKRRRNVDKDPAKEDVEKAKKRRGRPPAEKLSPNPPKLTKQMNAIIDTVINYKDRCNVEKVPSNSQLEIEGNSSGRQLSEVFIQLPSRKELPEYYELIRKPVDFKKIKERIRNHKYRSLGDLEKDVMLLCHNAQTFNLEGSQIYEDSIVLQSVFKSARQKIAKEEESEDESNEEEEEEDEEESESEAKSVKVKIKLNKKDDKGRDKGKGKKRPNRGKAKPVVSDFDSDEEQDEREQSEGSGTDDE

| Structure (SMILES) | Emax [%] | DC50 [nM] |
| --- | --- | --- |
| Cc1ncsc1-c1ccc([C@H](C)NC(=O)[C@@H]2C[C@@H](O)CN2C(=O)[C@@H](NC(=O)CCC(=O)N2CCN(CCOc3cccc(CCOc4cc(-c5ccccc5O)nnc4N)c3)CC2)C(C)(C)C)cc1 [Example 73, (2S,4R)-1-[(2S)-2-[[4-[4-[2-[3-[2-[3-amino-6-(2-hydroxyphenyl)pyridazin-4-yl]oxyethyl]phenoxy]ethyl]piperazin-1-yl]-4-oxo-butanoyl]amino]-3,3-dimethyl-butanoyl]-4-hydroxy-N-[(1S)-1-[4-(4-methylthiazol-5-yl)phenyl]ethyl]pyrrolidine-2-carboxamide] | 29 | 1650 |
| Cc1ncsc1-c1ccc([C@H](C)NC(=O)[C@@H]2C[C@@H](O)CN2C(=O)[C@@H](NC(=O)CCCCCC(=O)N2CCN(c3cccc(OC4CN(c5cc(-c6ccccc6O)nnc5N)C4)c3)CC2)C(C)(C)C)cc1 [Example 94, (2S,4R)-1-[(2S)-2-[[7-[4-[3-[1-[3-amino-6-(2-hydroxyphenyl)pyridazin-4-yl]azetidin-3-yl]oxyphenyl]piperazin-1-yl]-7-oxo-heptanoyl]amino]-3,3-dimethyl-butanoyl]-4-hydroxy-N-[(1S)-1-[4-(4-methylthiazol-5-yl)phenyl]ethyl]pyrrolidine-2-carboxamide] | 43 | 693 |
| Cc1ncsc1-c1ccc([C@H](C)NC(=O)[C@@H]2C[C@@H](O)CN2C(=O)[C@@H](NC(=O)CCCCCCCCCCC(=O)N2CCN(c3cccc(N4CCCC(Oc5cc(-c6ccccc6O)nnc5N)C4)c3)CC2)C(C)(C)C)cc1 (mixture of isomers) [Example 92, rac-(2S,4R)-4-hydroxy-1-[rac-(2S)-2-[[12-[4-[3-[3-[3-amino-6-(2-hydroxyphenyl)pyridazin-4-yl]oxy-1-piperidyl]phenyl]piperazin-1-yl]-12-oxo-dodecanoyl]amino]-3,3-dimethyl-butanoyl]-N-[rac-(1S)-1-[4-(4-methylthiazol-5-yl)phenyl]ethyl]pyrrolidine-2-carboxamide] | 45 | 560 |
| Cc1ncsc1-c1ccc([C@H](C)NC(=O)[C@@H]2C[C@@H](O)CN2C(=O)[C@@H](NC(=O)CCOCCC(=O)N2CCN(c3ccc(CN4CCCC(Oc5cc(-c6ccccc6O)nnc5N)C4)cc3)CC2)C(C)(C)C)cc1 (mixture of isomers) [Example 38, rac-(2S,4R)-4-hydroxy-1-[rac-(2S)-2-[3-[3-[4-[4-[[3-[3-amino-6-(2-hydroxyphenyl)pyridazin-4-yl]oxy-1-piperidyl]methyl]phenyl]piperazin-1-yl]-3-oxo-propoxy]propanoylamino]-3,3-dimethyl-butanoyl]-N-[rac-(1S)-1-[4-(4-methylthiazol-5-yl)phenyl]ethyl]pyrrolidine-2-carboxamide] | 70 | 589 |
| Cc1ncsc1-c1ccc(CNC(=O)[C@@H]2C[C@@H](O)CN2C(=O)[C@H](NC(=O)CCCCCCCCCOc2cccc(N3C4CCC3CN(c3cc(-c5ccccc5O)nnc3N)C4)c2)C(C)(C)C)cc1 [Example 20, (2S,4R)-1-[(2R)-2-[10-[3-[3-[3-amino-6-(2-hydroxyphenyl)pyridazin-4-yl]-3,8-diazabicyclo[3.2.1]octan-8-yl]phenoxy]decanoylamino]-3,3-dimethyl-butanoyl]-4-hydroxy-N-[[4-(4-methylthiazol-5-yl)phenyl]methyl]pyrrolidine-2-carboxamide] | 33 | 313 |
| Cc1ncsc1-c1ccc(CNC(=O)[C@@H]2C[C@@H](O)CN2C(=O)[C@@H](NC(=O)CCCCCC(=O)N2CCN(Cc3cccc(C#Cc4cc(-c5ccccc5O)nnc4N)c3)CC2)C(C)(C)C)cc1 [Example 61, (2S,4R)-1-[(2S)-2-[[7-[4-[[3-[2-[3-amino-6-(2-hydroxyphenyl)pyridazin-4-yl]ethynyl]phenyl]methyl]piperazin-1-yl]-7-oxo-heptanoyl]amino]-3,3-dimethyl-butanoyl]-4-hydroxy-N-[[4-(4-methylthiazol-5-yl)phenyl]methyl]pyrrolidine-2-carboxamide] | 59 | 519 |
